One data set concerns the target CYP2C9 (Homo sapiens (Human), UniProt P11712). Nature of the data set: CYP P450 inhibition.
In the next data set the target is CYP1A2 (Homo sapiens (Human), UniProt P05177). The experiment in a line: CYP P450 inhibition.
The next data set deals with CYP2C19 (Homo sapiens (Human), UniProt P33261). Nature of the data set: CYP P450 inhibition.
The target in the next data set is CYP3A4 (Homo sapiens (Human), UniProt P08684). Nature of the data set: CYP P450 inhibition.
Chain of CYP3A4 (P08684 whole entry): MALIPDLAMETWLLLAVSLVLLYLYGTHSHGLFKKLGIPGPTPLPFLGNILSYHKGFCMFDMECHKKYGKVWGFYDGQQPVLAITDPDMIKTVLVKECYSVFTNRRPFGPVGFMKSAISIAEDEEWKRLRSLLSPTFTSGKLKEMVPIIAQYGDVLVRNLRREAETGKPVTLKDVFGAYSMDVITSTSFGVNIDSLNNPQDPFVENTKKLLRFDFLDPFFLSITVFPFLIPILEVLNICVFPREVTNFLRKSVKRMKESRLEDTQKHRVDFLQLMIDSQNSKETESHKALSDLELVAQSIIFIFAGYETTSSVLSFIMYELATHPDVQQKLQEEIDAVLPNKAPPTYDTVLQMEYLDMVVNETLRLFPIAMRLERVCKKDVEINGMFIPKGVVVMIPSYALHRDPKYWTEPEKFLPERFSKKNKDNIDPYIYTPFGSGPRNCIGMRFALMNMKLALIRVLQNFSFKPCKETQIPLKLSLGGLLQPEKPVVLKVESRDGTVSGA
The next data set addresses KIT (Homo sapiens (Human), UniProt P10721). Nature of the data set: Kinase screening assay (IC50).
The conditions of data set [1]: PBS, aqueous buffer.
A further data set concerns the target CYP2D6 (Homo sapiens (Human), UniProt P10635). The experiment in a line: CYP P450 inhibition.
The target of the next data set is hERG channel (Homo sapiens (Human), UniProt Q12809). Nature of the data set: hERG Safety Assay, Ionworks high-throughput electrophysiology. A general note: Block of hERG is tested as a sign of cardiac risk.
The next data set concerns the target RET (Homo sapiens (Human), UniProt P07949). Nature of the data set: Kinase screening assay (IC50).
Another data set relates to MCF7 cells. The experiment in a line: Cell viability assay (PrestoBlue). The conditions noted are these: Homo sapiens, MCF7, 120 h; cell viability at day 5; read-out: Antiproliferative activity (EC50) MCF7. The format is cell-based.
Data set [2] concerns SYF fibroblasts (deficient for Src, Yes, and Fyn). The experiment in a line: Cell viability assay (PrestoBlue). The format is cell-based, murine. To be noted: Mus musculus, Fibroblast, 120 h; cell viability at day 5; read-out: Antiproliferative activity (EC50) SYF (−/− Src).
Data set [3] has as its target selection of recombinant kinases. The experiment in a line: Kinase screening assay, panel summary. To be noted: 15 kinases of Table 2. The format is biochemical, human.

Read-outs that look alike come from different tables or passages of the source.

Chain of KIT (P10721 26-976): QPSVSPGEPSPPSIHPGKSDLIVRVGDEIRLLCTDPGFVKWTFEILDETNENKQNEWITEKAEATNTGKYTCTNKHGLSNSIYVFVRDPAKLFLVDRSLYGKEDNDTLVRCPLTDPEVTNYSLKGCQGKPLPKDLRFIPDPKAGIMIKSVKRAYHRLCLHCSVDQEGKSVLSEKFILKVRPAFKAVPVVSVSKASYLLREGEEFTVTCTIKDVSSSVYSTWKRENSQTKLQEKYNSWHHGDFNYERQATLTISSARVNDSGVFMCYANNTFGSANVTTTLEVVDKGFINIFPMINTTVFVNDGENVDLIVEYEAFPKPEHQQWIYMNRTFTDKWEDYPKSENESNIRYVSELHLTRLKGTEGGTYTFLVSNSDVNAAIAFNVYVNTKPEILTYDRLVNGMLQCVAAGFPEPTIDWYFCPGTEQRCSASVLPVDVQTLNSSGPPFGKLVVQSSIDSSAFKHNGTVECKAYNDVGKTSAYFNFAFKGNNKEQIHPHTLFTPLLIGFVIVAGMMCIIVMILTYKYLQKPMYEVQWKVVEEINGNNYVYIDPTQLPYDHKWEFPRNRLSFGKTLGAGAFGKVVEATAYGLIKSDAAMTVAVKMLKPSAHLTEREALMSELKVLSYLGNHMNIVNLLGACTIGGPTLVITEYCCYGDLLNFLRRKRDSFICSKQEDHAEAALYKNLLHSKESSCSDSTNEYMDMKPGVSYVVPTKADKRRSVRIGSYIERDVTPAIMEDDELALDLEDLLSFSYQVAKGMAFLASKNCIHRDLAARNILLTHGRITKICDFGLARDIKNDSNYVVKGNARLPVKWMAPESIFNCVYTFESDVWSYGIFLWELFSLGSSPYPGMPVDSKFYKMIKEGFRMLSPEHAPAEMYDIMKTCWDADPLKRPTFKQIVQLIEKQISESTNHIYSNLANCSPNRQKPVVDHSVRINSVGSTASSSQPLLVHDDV
Chain of RET (P07949 29-1114): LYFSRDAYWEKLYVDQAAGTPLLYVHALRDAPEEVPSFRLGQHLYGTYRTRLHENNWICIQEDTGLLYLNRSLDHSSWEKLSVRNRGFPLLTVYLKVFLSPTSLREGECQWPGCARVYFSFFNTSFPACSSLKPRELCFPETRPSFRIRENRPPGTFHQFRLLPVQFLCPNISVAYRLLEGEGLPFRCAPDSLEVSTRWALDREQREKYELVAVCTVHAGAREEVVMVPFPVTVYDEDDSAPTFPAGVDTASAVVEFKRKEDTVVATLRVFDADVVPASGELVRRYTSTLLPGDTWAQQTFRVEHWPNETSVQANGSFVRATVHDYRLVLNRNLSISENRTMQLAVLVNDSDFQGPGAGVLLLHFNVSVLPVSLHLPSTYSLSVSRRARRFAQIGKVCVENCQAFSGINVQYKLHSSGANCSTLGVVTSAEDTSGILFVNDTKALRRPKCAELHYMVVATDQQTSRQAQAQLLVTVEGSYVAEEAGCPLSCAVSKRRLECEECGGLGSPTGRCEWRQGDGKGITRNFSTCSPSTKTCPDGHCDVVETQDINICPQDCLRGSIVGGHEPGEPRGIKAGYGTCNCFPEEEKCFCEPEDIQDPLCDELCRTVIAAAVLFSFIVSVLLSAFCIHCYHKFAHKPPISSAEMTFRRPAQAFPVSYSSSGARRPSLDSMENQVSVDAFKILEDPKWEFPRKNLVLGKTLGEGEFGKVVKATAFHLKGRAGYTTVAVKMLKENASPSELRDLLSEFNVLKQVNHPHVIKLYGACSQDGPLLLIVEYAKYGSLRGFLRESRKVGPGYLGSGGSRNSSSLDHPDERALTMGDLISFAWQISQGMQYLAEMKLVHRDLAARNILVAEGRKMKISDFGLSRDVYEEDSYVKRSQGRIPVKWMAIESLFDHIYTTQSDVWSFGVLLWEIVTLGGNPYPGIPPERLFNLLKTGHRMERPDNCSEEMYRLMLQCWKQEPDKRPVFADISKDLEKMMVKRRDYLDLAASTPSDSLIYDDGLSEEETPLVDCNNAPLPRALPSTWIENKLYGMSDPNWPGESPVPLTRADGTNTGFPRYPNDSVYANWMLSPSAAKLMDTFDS
Chain of CYP2C9 (P11712 whole entry): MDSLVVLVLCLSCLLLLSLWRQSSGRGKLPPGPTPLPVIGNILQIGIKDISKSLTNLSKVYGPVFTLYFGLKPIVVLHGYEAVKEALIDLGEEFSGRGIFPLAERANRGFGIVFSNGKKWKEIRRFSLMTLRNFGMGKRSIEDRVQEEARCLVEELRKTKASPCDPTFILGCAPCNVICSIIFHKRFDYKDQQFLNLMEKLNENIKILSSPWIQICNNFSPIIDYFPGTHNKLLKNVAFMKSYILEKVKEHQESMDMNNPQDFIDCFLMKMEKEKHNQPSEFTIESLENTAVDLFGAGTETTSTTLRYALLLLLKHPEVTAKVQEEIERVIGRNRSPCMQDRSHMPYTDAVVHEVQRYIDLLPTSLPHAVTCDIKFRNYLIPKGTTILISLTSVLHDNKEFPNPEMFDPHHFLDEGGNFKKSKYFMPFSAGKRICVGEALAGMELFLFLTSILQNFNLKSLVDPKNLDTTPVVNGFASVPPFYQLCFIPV
Chain of CYP2C19 (P33261 whole entry): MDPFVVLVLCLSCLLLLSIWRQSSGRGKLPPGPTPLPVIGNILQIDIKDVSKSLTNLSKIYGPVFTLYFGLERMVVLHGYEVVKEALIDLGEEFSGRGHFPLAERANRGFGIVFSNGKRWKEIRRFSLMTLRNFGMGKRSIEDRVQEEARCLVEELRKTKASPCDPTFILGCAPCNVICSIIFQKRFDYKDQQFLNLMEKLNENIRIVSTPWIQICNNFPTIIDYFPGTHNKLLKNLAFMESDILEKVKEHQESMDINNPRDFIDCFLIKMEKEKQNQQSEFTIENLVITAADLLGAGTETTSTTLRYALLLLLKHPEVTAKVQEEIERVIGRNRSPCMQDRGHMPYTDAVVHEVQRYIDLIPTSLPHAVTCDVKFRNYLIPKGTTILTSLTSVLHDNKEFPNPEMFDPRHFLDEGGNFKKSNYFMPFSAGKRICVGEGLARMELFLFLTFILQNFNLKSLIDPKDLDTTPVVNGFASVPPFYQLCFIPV
Chain of CYP1A2 (P05177 whole entry): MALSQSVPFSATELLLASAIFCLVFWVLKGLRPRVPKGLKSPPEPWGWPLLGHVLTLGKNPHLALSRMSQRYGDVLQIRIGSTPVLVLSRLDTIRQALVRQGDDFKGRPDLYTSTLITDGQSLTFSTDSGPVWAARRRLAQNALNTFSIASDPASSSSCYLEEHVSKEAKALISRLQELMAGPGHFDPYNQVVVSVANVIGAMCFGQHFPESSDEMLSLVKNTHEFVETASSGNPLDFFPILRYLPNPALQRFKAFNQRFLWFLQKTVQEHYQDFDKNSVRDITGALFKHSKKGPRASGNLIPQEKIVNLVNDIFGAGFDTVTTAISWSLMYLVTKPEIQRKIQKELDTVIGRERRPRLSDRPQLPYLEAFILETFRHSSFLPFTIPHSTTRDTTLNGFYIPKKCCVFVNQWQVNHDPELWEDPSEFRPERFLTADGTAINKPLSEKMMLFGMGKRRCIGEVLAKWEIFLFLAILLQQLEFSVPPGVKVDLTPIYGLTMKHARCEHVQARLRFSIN
Chain of CYP2D6 (P10635 whole entry): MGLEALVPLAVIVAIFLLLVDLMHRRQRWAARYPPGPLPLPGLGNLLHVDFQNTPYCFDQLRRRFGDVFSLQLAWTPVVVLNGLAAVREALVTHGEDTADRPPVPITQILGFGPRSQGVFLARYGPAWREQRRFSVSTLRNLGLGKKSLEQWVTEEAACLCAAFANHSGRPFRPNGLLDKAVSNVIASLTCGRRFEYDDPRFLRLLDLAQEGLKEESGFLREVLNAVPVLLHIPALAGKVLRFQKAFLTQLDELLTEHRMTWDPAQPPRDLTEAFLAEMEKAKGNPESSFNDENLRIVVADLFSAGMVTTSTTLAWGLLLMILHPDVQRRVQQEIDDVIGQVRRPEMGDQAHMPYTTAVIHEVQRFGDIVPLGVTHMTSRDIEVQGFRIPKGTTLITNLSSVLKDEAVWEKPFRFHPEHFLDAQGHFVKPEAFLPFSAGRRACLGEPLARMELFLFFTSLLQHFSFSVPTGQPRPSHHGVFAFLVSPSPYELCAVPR

Regarding `COc1cc(-c2nn(CCN3CCC(N(C)C)CC3)c3ncnc(N)c23)ccc1NC(=O)OC(C)(C)C` [Compound 506, tert-butyl N-[4-[4-amino-1-[2-[4-(dimethylamino)-1-piperidyl]ethyl]pyrazolo[3,4-d]pyrimidin-3-yl]-2-methoxy-phenyl]carbamate], the inhibition at 10 µM is -23.1% against CYP2C9; 24.6% on CYP1A2; -5.4% against CYP2C19; -74.6% against CYP3A4; 31.8% at CYP2D6. Besides, the IC50 at KIT is 5.13 µM; on KIT (read-out: Kinase Screening (IC50) c-KIT), above 1 µM; at KIT (read-out: Target inhibition (IC50) KIT, 10 μM ATP) it was above 1 µM; at hERG channel, 18.2 µM; on RET, above 10 µM; at RET (read-out: Kinase Screening (IC50) RET), above 1 µM. Also, on RET (read-out: Target inhibition (IC50) RET, 10 μM ATP), the half-inhibitory concentration (IC50) was above 1 µM. In data set [1], this compound came in with a solubility above 100 mg/mL.
With `CN(C)C1CCN(CCn2nc(-c3ccc(CC(=O)O)cc3)c3c(N)ncnc32)CC1` [Compound 556, 2-[4-[4-amino-1-[2-[4-(dimethylamino)-1-piperidyl]ethyl]pyrazolo[3,4-d]pyrimidin-3-yl]phenyl]acetic acid], the EC50 (in the data set with MCF7 cells; in [2]) was above 10 µM throughout. Also, the “Target inhibition (IC50), remark on the whole panel” value in data set [3] is reported as “No inhibition found”.

What is called inhibition is the drop in the measured response relative to a control, in per cent. As usually defined, the IC50 is the concentration at which inhibition is half-maximal. In general, solubility refers to the concentration that dissolves in the medium under given conditions.

For the origin of these results see patent US10294227B2, “Compounds” (UNIVERSITY COURT OF THE UNIVERSITY OF EDINBURGH, priority 2015, dated 2019).
